Usually ED50 stands for the dose at which the effect has come halfway, by size or by number of responders. As usually defined, the Ki is the equilibrium dissociation constant of an inhibitor or competing ligand from its target.

These results are taken from US20030162777A1, “Novel N-acylated heterocycles” (Recordati S.A., priority 2001, published 2003).

For assay [1], the system named is anaesthetised rats. In words: Effects on rhythmic bladder-voiding contractions induced by bladder filling in anaesthetised rats. Type of assay: in vivo, rat. The note with it: intravenous administration, urethane-anaesthetised rats. As for the experimental part:
Female Sprague-Dawley rats weighing 225-275 g (Crl: CDo Br, Charles River Italia) were used. The animals were housed with free access to food and water and maintained on a forced 12-hour alternating light-dark cycle at 22-24° C. for at least one week, except during the experiment. The activity on rhythmic bladder voiding contractions was evaluated according to the method of Dray (Dray J., Pharmacol. Methods, 13:157, 1985), with some modifications as in Guarneri (Guarneri, Pharmacol. Res. 27:173, 1993). Briefly, the rats were anaesthetised by subcutaneous injection of 1.25 g/kg (5 ml/kg) urethane, after which the urinary bladder was catheterised via the urethra using PE 50 polyethylene tubing filled with physiological saline. The catheter was tied in place with a ligature around the external urethral orifice and was connected to conventional pressure transducers (Statham P23 ID/P23 XL). […] The bladder was then filled via the recording catheter by incremental volumes of warm (37° C.) saline until reflex bladder-voiding contractions occurred (usually 0.8-1.5 ml). For intravenous injection of bioactive compounds, PE 50 polyethylene tubing filled with physiological saline was inserted into the jugular vein.
From the cystometrogram, the number of contractions recorded 15 minutes before (basal values) and after treatment, as well as the mean amplitude of these contractions (mean height of the peaks in mmHg), was evaluated.
Since most compounds produced an effect that was relatively rapid in onset and led to a complete cessation of bladder contractions, bioactivity was conveniently estimated by measuring the duration of bladder quiescence (i.e. the length of the time during which no contractions occurred). The number of tested animals showing a reduction in the number of contractions higher than 30% of that observed in the basal period was recorded too.
The extrapolated doses which induced a reduction in the number of contractions greater than 30% in 50% of the treated rats (ED50) were evaluated by the method of Bliss (Bliss C. I., Quart J. Pharm. Pharmacol. 11, 192-216, 1938).

Assay [2] concerns the target T1, human 5HT1A-serotonergic receptor (Homo sapiens, UniProt P08908).
T1 construct: expressed in transfected cells; host or cells: HeLa (human cell line), stably transfected; cell membranes used
T1 sequence (P08908 1-422): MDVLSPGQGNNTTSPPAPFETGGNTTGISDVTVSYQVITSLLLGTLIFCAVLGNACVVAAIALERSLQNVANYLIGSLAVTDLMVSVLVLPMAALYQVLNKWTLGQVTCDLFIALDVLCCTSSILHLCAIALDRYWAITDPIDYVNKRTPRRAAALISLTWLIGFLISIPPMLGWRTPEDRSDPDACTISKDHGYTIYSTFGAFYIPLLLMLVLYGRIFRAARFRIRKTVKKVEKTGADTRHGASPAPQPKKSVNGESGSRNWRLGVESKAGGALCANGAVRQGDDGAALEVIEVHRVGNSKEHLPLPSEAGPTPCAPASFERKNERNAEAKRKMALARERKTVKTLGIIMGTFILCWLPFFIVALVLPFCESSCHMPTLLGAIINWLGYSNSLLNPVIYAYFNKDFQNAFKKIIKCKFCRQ
In words: Radioligand binding to recombinant 5-HT1A receptors. The note with it: [3H]8-OH-DPAT 1 nM, membranes of HeLa cells with human 5-HT1A receptor; Ki from IC50 by Cheng & Prusoff; read-out: Binding affinity for 5HT1A receptors, Ki. Summed up:
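Membranes from HeLa cells stably expressing human 5-HT1A incubated 30 min at 30 °C with 1 nM [3H]8-OH-DPAT and compound in 50 mM Tris-HCl pH 7.4, 2.5 mM MgCl2, […] pargyline. Nonspecific binding defined with 10 μM 5-HT; filtration readout, IC50 converted to Ki via Cheng–Prusoff.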

SMILES strings stand for the structures.

On to `O=C(C1CCCCC1)N1c2ccccc2CCC1CN1CCN(c2cccc3[nH]ccc23)CC1` (racemic) [Example 1, (±)1-(1-cyclohexanecarbonyl-1,2,3,4-tetrahydroquinoline-2-ylmethyl)-4-(4-indolyl)piperazine], for which the median effective dose (ED50) in assay [1] (Rattus norvegicus, read-out: ED50 frequency (extrapolated dose inducing a reduction of the number of contractions >30% in 50% of treated rats)) was 0.064 mg/kg. Besides, the “ED10 min (extrapolated dose inducing 10 minutes of disappearance of the contractions)” value in assay [1] is 0.107 mg/kg. Moreover, the Ki in assay [2] turned out to be 3.3 nM.
